Test results from PubChem BioAssay AID2060341 (Molecular Pharmacology Branch, DTP, NCI, 2025).

System: 327498-153-R-J2-PDC multicell spheroid viability
Assay: Anticancer human tumor 327498-153-R-J2-PDC patient-derived uterine carcinosarcoma cell line growth inhibition [IpAb]
Conditions: for IC50: curve of first compound; for viability, T/C: stronger effect = lower value
Summary of the method: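 Combinations with ipatasertib or abemaciclib were tested on tumour spheroids holding HUVEC (25%) and MSC (15%) alongside 60% malignant cells. Top concentration was at or near clinical Cmax (10 microM if undefined), descending in half-log steps.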

[1] = second compound 0.1 µM, first compound 0.00949 µM
[2] = second compound 0.1 µM, first compound 0.03 µM
[3] = second compound 0.1 µM, first compound 0.0949 µM
[4] = second compound 0.1 µM, first compound 0.3 µM
[5] = second compound 0.1 µM, first compound 0.949 µM
[6] = second compound 0.1 µM, first compound 3 µM
[7] = second compound 0.316 µM, first compound 0.00949 µM
[8] = second compound 0.316 µM, first compound 0.03 µM
[9] = second compound 0.316 µM, first compound 0.0949 µM
[10] = second compound 0.316 µM, first compound 0.3 µM
[11] = second compound 0.316 µM, first compound 0.949 µM
[12] = second compound 0.316 µM, first compound 3 µM
[13] = second compound 1 µM, first compound 0.00949 µM
[14] = second compound 1 µM, first compound 0.03 µM
[15] = second compound 1 µM, first compound 0.0949 µM
[16] = second compound 1 µM, first compound 0.3 µM
[17] = second compound 1 µM, first compound 0.949 µM
[18] = second compound 1 µM, first compound 3 µM
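Also: spheroids exposed to agents for 7 days.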
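For viability, T/C in this document: 100% = DMSO vehicle control viability.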

Cn1cnc2c(F)c(Nc3ccc(Br)cc3Cl)c(C(=O)NOCCO)cc21 + CCN1CCN(Cc2ccc(Nc3ncc(F)c(-c4cc(F)c5nc(C)n(C(C)C)c5c4)n3)nc2)CC1
IC50 (second compound 0.01 µM): 190 nM
IC50 (second compound 0.0316 µM): 19.5 nM
IC50 (second compound 0.1 µM): < 9.49 nM
IC50 (second compound 0.316 µM): < 9.49 nM
IC50 (second compound 1 µM): < 9.49 nM
viability, T/C (second compound 0.01 µM, first compound 0.00949 µM): 79.8%
viability, T/C (second compound 0.01 µM, first compound 0.03 µM): 64.2%
viability, T/C (second compound 0.01 µM, first compound 0.0949 µM): 53.6%
viability, T/C (second compound 0.01 µM, first compound 0.3 µM): 48.5%
viability, T/C (second compound 0.01 µM, first compound 0.949 µM): 38.1%
viability, T/C (second compound 0.01 µM, first compound 3 µM): 24.4%
viability, T/C (second compound 0.0316 µM, first compound 0.00949 µM): 54.8%
viability, T/C (second compound 0.0316 µM, first compound 0.03 µM): 46.3%
viability, T/C (second compound 0.0316 µM, first compound 0.0949 µM): 40.3%
viability, T/C (second compound 0.0316 µM, first compound 0.3 µM): 39%
viability, T/C (second compound 0.0316 µM, first compound 0.949 µM): 31.6%
viability, T/C (second compound 0.0316 µM, first compound 3 µM): 22%
viability, T/C [1]: 48.9%
viability, T/C [2]: 42.7%
viability, T/C [3]: 39.5%
viability, T/C [4]: 33.9%
viability, T/C [5]: 28.5%
viability, T/C [6]: 20.9%
viability, T/C [7]: 42.9%
viability, T/C [8]: 41.7%
viability, T/C [9]: 35.9%
viability, T/C [10]: 33%
viability, T/C [11]: 24.6%
viability, T/C [12]: 20.3%
viability, T/C [13]: 45.3%
viability, T/C [14]: 43%
viability, T/C [15]: 36.5%
viability, T/C [16]: 29.4%
viability, T/C [17]: 26.3%
viability, T/C [18]: 17.8%

CC(C)(C)c1cnc(CSc2cnc(NC(=O)C3CCNCC3)s2)o1 + CC(C)NCC(C(=O)N1CCN(c2ncnc3c2C(C)CC3O)CC1)c1ccc(Cl)cc1
IC50 (second compound 0.1 µM): 131 nM
IC50 (second compound 0.316 µM): 109 nM
IC50 (second compound 1 µM): 45.4 nM
IC50 (second compound 3.16 µM): < 9.49 nM
IC50 (second compound 10 µM): < 9.49 nM
viability, T/C [1]: 101%
viability, T/C [2]: 103%
viability, T/C [3]: 69.1%
viability, T/C [4]: 1.04%
viability, T/C [5]: 0.63%
viability, T/C [6]: 0.58%
viability, T/C [7]: 80.3%
viability, T/C [8]: 82.2%
viability, T/C [9]: 56.9%
viability, T/C [10]: 0.5%
viability, T/C [11]: 0.5%
viability, T/C [12]: 0.49%
viability, T/C [13]: 56.2%
viability, T/C [14]: 57.9%
viability, T/C [15]: 37.6%
viability, T/C [16]: 0.39%
viability, T/C [17]: 0.44%
viability, T/C [18]: 0.45%
viability, T/C (second compound 3.16 µM, first compound 0.00949 µM): 48%
viability, T/C (second compound 3.16 µM, first compound 0.03 µM): 45.8%
viability, T/C (second compound 3.16 µM, first compound 0.0949 µM): 28.7%
viability, T/C (second compound 3.16 µM, first compound 0.3 µM): 0.18%
viability, T/C (second compound 3.16 µM, first compound 0.949 µM): 0.36%
viability, T/C (second compound 3.16 µM, first compound 3 µM): 0.34%
viability, T/C (second compound 10 µM, first compound 0.00949 µM): 36.6%
viability, T/C (second compound 10 µM, first compound 0.03 µM): 38%
viability, T/C (second compound 10 µM, first compound 0.0949 µM): 15.1%
viability, T/C (second compound 10 µM, first compound 0.3 µM): 0.21%
viability, T/C (second compound 10 µM, first compound 0.949 µM): 0.55%
viability, T/C (second compound 10 µM, first compound 3 µM): 0.37%

Cc1nc(NC(=O)N2CCCC2C(N)=O)sc1-c1ccnc(C(C)(C)C(F)(F)F)c1 (stereo not given) + CC(C)NCC(C(=O)N1CCN(c2ncnc3c2C(C)CC3O)CC1)c1ccc(Cl)cc1
IC50 (second compound 0.1 µM): 9910 nM
IC50 (second compound 0.316 µM): 4450 nM
IC50 (second compound 1 µM): 1230 nM
IC50 (second compound 3.16 µM): 49.9 nM
IC50 (second compound 10 µM): < 31.6 nM
viability, T/C (second compound 0.1 µM, first compound 0.0316 µM): 91.1%
viability, T/C (second compound 0.1 µM, first compound 0.1 µM): 93.2%
viability, T/C (second compound 0.1 µM, first compound 0.316 µM): 83.3%
viability, T/C (second compound 0.1 µM, first compound 1 µM): 72.7%
viability, T/C (second compound 0.1 µM, first compound 3.16 µM): 63.8%
viability, T/C (second compound 0.1 µM, first compound 10 µM): 49.4%
viability, T/C (second compound 0.316 µM, first compound 0.0316 µM): 72%
viability, T/C (second compound 0.316 µM, first compound 0.1 µM): 70.5%
viability, T/C (second compound 0.316 µM, first compound 0.316 µM): 67.8%
viability, T/C (second compound 0.316 µM, first compound 1 µM): 59.2%
viability, T/C (second compound 0.316 µM, first compound 3.16 µM): 57.8%
viability, T/C (second compound 0.316 µM, first compound 10 µM): 38.5%
viability, T/C (second compound 1 µM, first compound 0.0316 µM): 56.4%
viability, T/C (second compound 1 µM, first compound 0.1 µM): 57.7%
viability, T/C (second compound 1 µM, first compound 0.316 µM): 59.2%
viability, T/C (second compound 1 µM, first compound 1 µM): 49.8%
viability, T/C (second compound 1 µM, first compound 3.16 µM): 42.5%
viability, T/C (second compound 1 µM, first compound 10 µM): 30.5%
viability, T/C (second compound 3.16 µM, first compound 0.0316 µM): 54.3%
viability, T/C (second compound 3.16 µM, first compound 0.1 µM): 44.9%
viability, T/C (second compound 3.16 µM, first compound 0.316 µM): 36.2%
viability, T/C (second compound 3.16 µM, first compound 1 µM): 34.6%
viability, T/C (second compound 3.16 µM, first compound 3.16 µM): 33.7%
viability, T/C (second compound 3.16 µM, first compound 10 µM): 21.3%
viability, T/C (second compound 10 µM, first compound 0.0316 µM): 38.7%
viability, T/C (second compound 10 µM, first compound 0.1 µM): 31.7%
viability, T/C (second compound 10 µM, first compound 0.316 µM): 26.6%
viability, T/C (second compound 10 µM, first compound 1 µM): 23.5%
viability, T/C (second compound 10 µM, first compound 3.16 µM): 25.5%
viability, T/C (second compound 10 µM, first compound 10 µM): 17.2%
